{"source": "patent US20230255943A1", "about": "“MMP-9 AND MMP-12 INHIBITION FOR TREATING SPINAL CORD INJURY OR RELATED INJURY TO NEUROLOGICAL TISSUE” (The University of Birmingham, priority 2020, published 2023)", "key": {"[1]": {"target": "T1, MMP-2 (Mus musculus, UniProt P33434)", "T1 construct": "from tissue", "T1 sequence (P33434 110-662)": "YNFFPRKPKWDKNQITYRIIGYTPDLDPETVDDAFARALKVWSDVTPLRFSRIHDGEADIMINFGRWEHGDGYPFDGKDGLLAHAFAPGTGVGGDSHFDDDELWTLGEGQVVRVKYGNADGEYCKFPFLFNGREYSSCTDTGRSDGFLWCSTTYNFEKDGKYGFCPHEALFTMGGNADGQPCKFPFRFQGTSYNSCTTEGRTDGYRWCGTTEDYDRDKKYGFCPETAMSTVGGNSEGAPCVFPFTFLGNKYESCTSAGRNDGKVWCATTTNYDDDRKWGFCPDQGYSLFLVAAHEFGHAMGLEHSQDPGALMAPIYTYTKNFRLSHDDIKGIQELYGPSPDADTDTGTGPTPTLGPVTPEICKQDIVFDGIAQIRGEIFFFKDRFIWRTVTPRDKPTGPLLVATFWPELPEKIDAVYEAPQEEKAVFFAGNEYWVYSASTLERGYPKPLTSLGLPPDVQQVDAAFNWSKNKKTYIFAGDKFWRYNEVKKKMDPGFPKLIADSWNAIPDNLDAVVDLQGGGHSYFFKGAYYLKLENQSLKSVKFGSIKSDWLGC", "assay": "MMP-2 activity after DC injury and AZD1236 administration", "assay_type": "in vivo", "conditions": "oral and intrathecal, effective dose"}, "[2]": {"tested_on": "mice with DC crush injury", "assay": "Immunohistochemistry of scar tissue (laminin, Sema-3A, CS-56) at lesion site", "assay_type": "in vivo, mouse", "conditions": "for attenuation of laminin immunoreactivity (scar tissue): 4 weeks after DC injury", "from_the_text": "After killing animals by exposure to rising concentrations of CO2, mice were intracardially perfused with 4% formaldehyde (TAAB Laboratories, Berkshire, UK) in 0.1M phosphate buffered saline (PBS). The lesion site+5 mm either side were dissected out, post-fixed in 4% formaldehyde and subjected to a graded series of sucrose solutions for cryoprotection. Spinal cords were blocked in OCT mounting compound (TAAB laboratories), sectioned longitudinally at 15 μm-thick using a cryostat (Brights Instruments, Huntingdon, UK) before being collected on charged glass slides (ThermoFisher Scientific, Loughborough, UK) and kept at −20° C. until required. Slides were numbered consecutively and sections from the middle of the lesion site were chosen for all immunohistochemical analyses, as described by previously (Surey S, Berry M, Logan A, Bicknell R, Ahmed Z. Differential cavitation, angiogenesis and wound-healing responses in injured mouse and rat spinal cords. Neuroscience 2014; 275: 62-80).\nFluorescent immunohistochemistry was performed as described previously (S. Surey, M. Berry, A. Logan, R. Bicknell, Z. Ahmed, Differential cavitation, angiogenesis and wound-healing responses in injured mouse and rat spinal cords. Neuroscience 275, 62-80 (2014)). […] Laminin was detected at 4 weeks after DC injury and treatment using a rabbit polyclonal anti-laminin primary antibody (ab11575; 1:400 dilution, Abcam). Macrophages were detected with a rabbit polyclonal anti-CD68 antibody (ab1525212; 1:500 dilution, Abcam); microglia were detected using a rabbit polyclonal antibody to CD11b (ab128797, 1:500 dilution, Abcam); GFAP was detected using a polyclonal anti-GFAP antibody (SAB5700611, 1:400 dilution, Sigma) were all detected at 10 days after DC injury and treatment. Semaphorin-3A (Sema-3A) and chondroitin sulphate proteoglycan (CSPG) was detected using monoclonal anti-CS-56 antibody (C8035; 1:200 dilution, Sigma) at 7 days after injury. […] CTB labelled axons in the mouse were detected using a goat polyclonal anti-CTB antibody (#703; 1:1000 dilution, List Biological Labs) at 6 weeks after DC injury.\nAll analyses were performed by investigators masked to the experimental groups. Relative fluorescent staining intensity was calculated by image analysis as described previously (Surey S, Berry M, Logan A, Bicknell R, Ahmed Z. Differential cavitation, angiogenesis and wound-healing responses in injured mouse and rat spinal cords. Neuroscience 2014; 275: 62-80). Briefly, photomicrographs taken at 5× magnification using the same standardized exposure settings throughout for each antibody were thresholded and the mean integrated intensity of pixels/unit area for each antibody was recorded Using ImageJ (NIH, USA) from n=12 mice/antibody."}, "[3]": {"conditions": "immediate or delayed by 24 h, 7 days (8 days delayed group)"}}}
{"smiles": "C[C@]1(CS(=O)(=O)N2CC=C(C#Cc3cnc(C4CC4)nc3)CC2)NC(=O)NC1=O", "note": "[AZD1236]", "values": [{"measurement": "DC injury-induced rise in MMP-2 activity", "setting": "[1]", "result": "no difference"}, {"measurement": "attenuation of laminin immunoreactivity (scar tissue)", "setting": "[2]; 24 hour delayed", "result": "> 77", "unit": "%"}, {"measurement": "attenuation of CS-56 immunoreactivity at the lesion site", "setting": "[2]; [3]", "result": "> 81", "unit": "%"}, {"measurement": "attenuation of Sema-3A immunoreactivity at the lesion site", "setting": "[2]; [3]", "result": "> 84", "unit": "%"}, {"measurement": "attenuation of laminin immunoreactivity (scar tissue)", "setting": "[2]; immediately after injury", "result": "> 80", "unit": "%"}]}
